Results taken from PMC7450492 (Molecular cancer therapeutics, 2020).
≈ marks a conversion by molar mass, not a printed value. Entries after “also recorded” stand apart in the source; their conditions may differ.

Assays:
[1] = system: LLC tumor; experiment: LLC tumor with macrophage depletion by anti-CSF1R; assay type: in vivo, mouse; details: macrophage depleted mice
[2] = system: B16-OVA tumor; experiment: B16-OVA tumor in C57BL/6 mice; assay type: in vivo, mouse
[3] = system: LLC cells; experiment: viability of LLC cells; assay type: cell-based, mouse
[4] = system: LLC tumors; experiment: LLC tumors in Syk^MC-KO mice; assay type: in vivo, mouse
[5] = system: T cells; experiment: T cell proliferation ex vivo; assay type: cell-based, mouse
[6] = system: LLC tumors; experiment: LLC syngeneic tumor in WT mice; assay type: in vivo; details: for infiltration of CD8+ T cells in LLC tumors: treated LLC tumors
[7] = PK in mice, i.v. and oral; assay type: in vivo, mouse; details: prototype formulation, preliminary
[8] = system: immunosuppressive gene expression in MΦ; experiment: immunosuppressive MΦ polarization, gene expression; assay type: cell-based; details: very low dose, compared to IPI-549 or R488 alone
[9] = system: p-AKT; experiment: p-AKT blockade; assay type: cell-based; details: 10 µM conc.
[10] = solubility in water; assay type: physicochemical
[11] = molecular target: Syk (Homo sapiens, UniProt P43405); experiment: cell free enzymatic inhibition of Syk; assay type: biochemical; details: read-out: Syk inhibitory activity IC50; cell free system
[12] = metabolic stability; assay type: in vitro ADME
[13] = system: CT26 tumor; experiment: CT26 tumor in NSG or Balb/c mice; assay type: in vivo, mouse
[14] = system: PI3K isoforms p110α, p110β, p110γ and p110δ; experiment: cell free enzymatic inhibition of PI3K isoforms; assay type: biochemical; details: in vitro

## COc1cc(Nc2ncc(F)c(Nc3ccc4c(n3)N(COP(=O)(O)O)C(=O)C(C)(C)O4)n2)cc(OC)c1OC [R788, Fostamatinib]
[1]
  LLC tumor growth, combination with anti-CSF1R (CD115) antibody: no additive effects
[2]; B16-OVA, H-2K^b SIINFEKL tetramers
  OVA specific CD8+ T cells in tumor draining lymph nodes: increased
[2]; C57BL/6 mice, R788 40 mg/kg, anti-PDL1 200µg, 40 mg/kg
  B16-OVA tumor growth: significantly blocked tumor growth; also recorded: substantially inhibited
[3]
  viability of LLC cells: no effect
[4]
  LLC tumor growth in Syk^MC-KO mice: didn’t show additive reduction
[5]
  T cell proliferation: no effect
[6]; LLC, WT mice, 40 mg/kg R788 orally, vs vehicle
  tumor growth and metastasis: significantly suppressed
[6]
  infiltration of CD8+ T cells in LLC tumors: increased infiltration

## C[C@H](NC(=O)c1c(N)nn2cccnc12)c1cc2cccc(C#Cc3cnn(C)c3)c2c(=O)n1-c1ccccc1 [IPI549]
[4]
  LLC tumor growth in Syk^MC-KO mice: significantly decreased

## Cc1nn(-c2ccnc(Nc3ccc(-c4csc5c(=O)cc(N6CCOCC6)oc45)cc3)n2)cc1CN1CCC1 [SRX3207]
[1]
  LLC tumor growth, combination with anti-CSF1R (CD115) antibody: no additive effects
[7]; 5mg/kg IV and 15 mg/kg PO
  half-life: about 5 hours
[7]; oral 15 mg/kg PO vs 5mg/kg IV
  bioavailability: around 2%
[8]
  immunosuppressive gene expression: potently blocks
[9]
  p-AKT blockade: able to block
[10]
  solubility in water: 43 µM (≈ 23.9 µg/mL)
[11]
  IC50: 0.03 µM
[12]
  CLint: 74 µL/min/mg protein
[4]
  LLC tumor growth in Syk^MC-KO mice: significantly decreased
[13]; Balb/c mice
  CT26 tumor growth in Balb/c mice: blocked tumor growth
[13]; NSG mice
  CT26 tumor growth in NSG mice: didn’t block
[5]
  T cell proliferation: didn’t affect
[14]
  PI3K inhibitory potency: acceptable PI3K inhibitory properties
[6]; 10 mg/kg dose
  toxicity in tumor-bearing mice: without toxicity
[6]; 10 mg/kg oral, WT mice, compared to IPI549 and R788 at similar doses
  LLC tumor growth and survival: blocked tumor growth and increased survival effectively
[6]
  infiltration of CD8+ T cells in LLC tumors: increased infiltration
